Reference: patent publication US20230348369A1 (Cytokinetics, Inc., priority 2020, published 2023)
Read-outs that look alike come from different tables or passages of the source.

Legend:
human NAMPT = human NAMPT (Homo sapiens, UniProt P43490); test: Human recombinant enzyme assay (NMN fluorescence biochemical assay, activation of NAMPT)
Summary of the method: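 Activation of recombinant human NAMPT (6 nM) with 2.5 mM ATP, 20 μM PRPP and 150 μM nicotinamide in 50 mM HEPES pH 7.2, 1 mM DTT, 1 mM CHAPS, 50 mM NaCl, 100 mM MgCl2; 60 min, ambient temperature. NMN formed was derivatized with acetophenone/KOH/formic acid, fluorescence read at 355/460 nm after 40 min.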

endogenous NAMPT = molecular target: T1, endogenous NAMPT (Homo sapiens, UniProt P43490); test: Cellular NAD+ modulation assay in neuroblastoma SH-SY5Y cells; format: cell-based
T1 construct: stimulate the endogenous NAMPT in a native cellular environment; endogenous in cells; host or cells: SH-SY5Y neuroblastoma cells
Description: The compounds described herein were also assayed for their ability to stimulate the endogenous NAMPT in a native cellular environment in the cellular NAD+ modulation assay, which measures the ability of the compound to modulate cellular NAD levels. Increased levels of NAD are expected by compounds that permeate the cells and activate the catalytic activity of the endogenous NAMPT.
Neuroblastoma SH-SY5Y cells were grown in 1:1 mixture of Eagle's Minimum Essential Medium and F12 Medium, along with 10% fetal bovine serum, in a humidified incubator with an atmosphere of 95% air and 5% CO2 at 37° C. The assays were initiated by plating 20 μL of SH-SY5Y cells in culture medium with 0.1% fetal bovine serum, at a density of 5000 cells per well to a 384-well Corning™ BioCoat™ Poly-D-Lysine Multiwell Plates. The plates were incubated in the 37° C. incubators for a period of 5 hours. Compounds in DMSO were added to the plates in a volume of 120 nL using the Labcyte Echo Liquid Handlers. […] The plates are then incubated for 40 hours. 30 μL of a readout-solution containing 0.2 U/mL Diaphorase enzyme, 40 uM resazurin, 10 uM FMN, 0.8 U/mL Alcohol dehydrogenase, 3% ethanol, 0.4 mg/mL bovine serum albumin, 0.2% Triton X-100 in 100 mM Tris-HCl, 30 mM EDTA, pH 8.4. The plates were read for fluorescence (Excitation/Emission=540 nm/590 nm) using an EnVision plate reader after 60 mins of incubation at ambient temperature.

[1] = Table A, human recombinant NAMPT, NMN formation, 60 min
[2] = Table A, human recombinant NAMPT, NMN formation, 60 min, read-out: EC50 Human
[3] = Table B, SH-SY5Y cells, cellular NAD levels, doxorubicin, 40 hours
[4] = Table B, SH-SY5Y cells, cellular NAD levels, doxorubicin, 40 hours, read-out: EC50

Chain of human NAMPT (P43490 whole entry): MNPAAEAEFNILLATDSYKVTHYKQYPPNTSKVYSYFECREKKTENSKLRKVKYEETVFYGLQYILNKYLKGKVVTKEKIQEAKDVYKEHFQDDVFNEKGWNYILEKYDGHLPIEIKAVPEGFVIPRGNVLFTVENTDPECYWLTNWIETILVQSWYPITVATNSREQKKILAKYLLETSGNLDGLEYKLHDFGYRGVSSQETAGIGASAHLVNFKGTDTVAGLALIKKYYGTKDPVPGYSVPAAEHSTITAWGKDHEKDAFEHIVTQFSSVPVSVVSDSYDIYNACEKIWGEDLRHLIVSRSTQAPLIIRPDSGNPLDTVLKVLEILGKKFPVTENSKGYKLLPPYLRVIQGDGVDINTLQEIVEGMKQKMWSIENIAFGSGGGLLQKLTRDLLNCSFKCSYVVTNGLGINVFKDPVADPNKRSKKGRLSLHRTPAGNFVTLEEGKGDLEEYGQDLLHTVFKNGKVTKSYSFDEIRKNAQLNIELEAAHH
T1 sequence (P43490 whole entry): as above

Row | SMILES | AC1.4 Human (human NAMPT; [1]) | EC50 (human NAMPT; [2]) | AC0.3 (endogenous NAMPT; [3]) | EC50 (endogenous NAMPT; [4]) | EC50 (human NAMPT) | EC50 (endogenous NAMPT)
1 | COc1ccc(CNC(=O)NC2CC3(C2)CC(C(=O)N2CCN(CC(C)(C)O)CC2)C3)cc1 (stereo not drawn) [Compound 76, 1-(6-(4-(2-hydroxy-2-methylpropyl)piperazine-1-carbonyl)spiro[3.3]heptan-2-yl)-3-(4-methoxybenzyl)urea] | 0.7 µM | 17.8 µM | 5.9 µM | 4.7 µM | – | –
2 | COc1ccc(CNC(=O)NC2CC3(C2)CC(C(=O)N2CCCc4cc(C)ccc42)C3)cc1 (stereo not drawn) [Compound 84, 1-(4-methoxybenzyl)-3-(6-(6-methyl-1,2,3,4-tetrahydroquinoline-1-carbonyl)spiro[3.3]heptan-2-yl)urea] | 0.1 µM | 2.8 µM | 5.3 µM | 12.7 µM | – | –
3 | COc1ccc(CNC(=O)NC2CC3(C2)CC(C(=O)N2CCOc4ccccc42)C3)cc1 (stereo not drawn) [Compound 85, 1-(6-(3,4-dihydro-2H-benzo[b][1,4]oxazine-4-carbonyl)spiro[3.3]heptan-2-yl)-3-(4-methoxybenzyl)urea] | 0.1 µM | 1.6 µM | 0.9 µM | 0.8 µM | – | –
4 | COc1ccc(CNC(=O)NC2CC3(C2)CC(C(=O)N(C)c2ccccc2)C3)cc1 (stereo not drawn) [Compound 87, 6-(3-(4-methoxybenzyl)ureido)-N-methyl-N-phenylspiro[3.3]heptane-2-carboxamide] | 0.6 µM | 27.4 µM | 3.4 µM | 2.4 µM | – | –
5 | COc1ccc(CNC(=O)NC2CC3(C2)CC(C(=O)N2CCCc4cnccc42)C3)cc1 (stereo not drawn) [Compound 90, 1-(4-methoxybenzyl)-3-(6-(1,2,3,4-tetrahydro-1,6-naphthyridine-1-carbonyl)spiro[3.3]heptan-2-yl)urea] | 0.3 µM | 5.1 µM | 0.9 µM | 0.8 µM | – | –
6 | CC(C)(O)CN1CCN(C(=O)C2CC3(CC(NC(=O)NCc4ccc(Cl)cc4)C3)C2)CC1 (stereo not drawn) [Compound 110] | 0.7 µM | – | 0.5 µM | – | 3.9 µM | 0.3 µM
7 | O=C(NCc1ccc(Cl)cc1)NC1CC2(C1)CC(NS(=O)(=O)Cc1ccccc1Cl)C2 (stereo not drawn) [Compound 120, N-(6-(3-(4-chlorobenzyl)ureido)spiro[3.3]heptan-2-yl)-1-(2-chlorophenyl)methanesulfonamide] | 0.5 µM | 2.6 µM | 0.2 µM | 0.3 µM | – | –
8 | O=C(NCc1ccc(Cl)cc1)NC1CC2(C1)CC(NS(=O)(=O)c1ccccc1)C2 (stereo not drawn) [Compound 121] | 1.5 µM | – | 0.6 µM | – | 5.7 µM | 1.2 µM
9 | COc1ccc(CNC(=O)NC2CC3(CC(Cn4ncc5ccccc54)C3)C2)cc1 (stereo not drawn) [Compound 134] | 0.6 µM | 7.2 µM | 8.0 µM | 12.7 µM | – | –
10 | COc1ccc(CNC(=O)NC2CC3(C2)CN(C(=O)c2ccc(C)nc2)C3)cc1 [Compound 138, 1-(4-methoxybenzyl)-3-(2-(6-methylnicotinoyl)-2-azaspiro[3.3]heptan-6-yl)urea] | 5.7 µM | 43.2 µM | 9.1 µM | 10.1 µM | – | –
11 | COc1ccc(CNC(=O)NC2CC3(C2)CN(C(=O)c2ccnc(C)c2)C3)cc1 [Compound 140, 1-(4-methoxybenzyl)-3-(2-(2-methylisonicotinoyl)-2-azaspiro[3.3]heptan-6-yl)urea] | 7.5 µM | 52.5 µM | 8.2 µM | 6.3 µM | – | –
12 | COc1ccc(CNC(=O)NC2CC3(C2)CN(C(=O)c2ccc(C)cc2)C3)cc1 [Compound 145, 1-(4-methoxybenzyl)-3-(2-(4-methylbenzoyl)-2-azaspiro[3.3]heptan-6-yl)urea] | 1.4 µM | 45.3 µM | 1.1 µM | 3.1 µM | – | –
13 | COc1ccc(CNC(=O)NCCCCCOc2ccccc2)cc1 [Compound 149, 1-(4-methoxybenzyl)-3-(5-phenoxypentyl)urea] | 0.3 µM | 4.9 µM | 0.6 µM | 1.1 µM | – | –
14 | Cc1cccc(C(=O)N2CC[C@]3(C2)C[C@@H](NC(=O)NCc2ccc(Cl)cc2)C3)c1 [Compound 161, 1-(4-chlorobenzyl)-3-((2r,4s)-6-(3-methylbenzoyl)-6-azaspiro[3.4]octan-2-yl)urea] | 7.5 µM | 15.7 µM | 0.3 µM | 0.8 µM | – | –
15 | Cc1ccccc1C(=O)N1CC[C@]2(C1)C[C@@H](NC(=O)NCc1ccc(Cl)cc1)C2 [Compound 162, 1-(4-chlorobenzyl)-3-((2r,4s)-6-(2-methylbenzoyl)-6-azaspiro[3.4]octan-2-yl)urea] | 6.2 µM | 21.7 µM | 0.7 µM | 1 µM | – | –
16 | Cc1ccc(C(=O)N2CC[C@]3(C2)C[C@H](NC(=O)NCc2ccc(Cl)cc2)C3)cc1 [Compound 164, 1-(4-chlorobenzyl)-3-((2s,4r)-6-(4-methylbenzoyl)-6-azaspiro[3.4]octan-2-yl)urea] | 12.6 µM | 40.1 µM | 11.6 µM | 12.9 µM | – | –
17 | O=C(NCCOCCOc1ccccc1)NCc1ccc(Cl)cc1 [Compound 196, 1-(4-chlorobenzyl)-3-(2-(2-phenoxyethoxy)ethyl)urea] | 3.7 µM | 25.5 µM | 1.0 µM | 3.3 µM | – | –
18 | Cc1cccc(N2CC[C@]3(C2)C[C@H](NC(=O)NCc2ccc(Cl)cc2)C3)n1 [Compound 199, 1-(4-chlorobenzyl)-3-((2s,4r)-6-(6-methylpyridin-2-yl)-6-azaspiro[3.4]octan-2-yl)urea] | 10.6 µM | 42.2 µM | 2.0 µM | – | – | –
19 | CN(C(=O)[C@H]1C[C@@]2(C[C@H](NC(=O)NCc3ccc(Cl)cc3)C2)C1)C1CCOC1 (stereo partly drawn) [Compound 202, (2S,4s,6S)-6-(3-(4-chlorobenzyl)ureido)-N-methyl-N-((R)-tetrahydrofuran-3-yl)spiro[3.3]heptane-2-carboxamide] | 0.9 µM | 2.2 µM | 0.5 µM | 0.6 µM | – | –
20 | Cc1ncccc1C(=O)NC1CC2(CC(NC(=O)NCc3ccc(Cl)cc3)C2)C1 (stereo not drawn) [Compound 203, N-(6-(3-(4-chlorobenzyl)ureido)spiro[3.3]heptan-2-yl)-2-methylnicotinamide] | 8.2 µM | 34.3 µM | 8.9 µM | 10 µM | – | –
21 | Cc1ccc(C(=O)N2CC3(CC(NC(=O)NCc4ccc(Cl)cc4)C3)C2)cc1 [Compound 206, 1-(4-chlorobenzyl)-3-(2-(4-methylbenzoyl)-2-azaspiro[3.3]heptan-6-yl)urea] | 2.2 µM | 4.3 µM | 0.2 µM | 0.5 µM | – | –
22 | Cc1ccc(C(=O)N2CC3(CC(NC(=O)NCc4ccncc4)C3)C2)cc1 [Compound 210, 1-(2-(4-methylbenzoyl)-2-azaspiro[3.3]heptan-6-yl)-3-(pyridin-4-ylmethyl)urea] | 1.9 µM | 49.9 µM | 9.7 µM | 9 µM | – | –
23 | Cc1ccc(C(=O)N2CC3(CC(NC(=O)NCc4ccc(C(N)=O)cc4)C3)C2)cc1 [Compound 211, 4-((3-(2-(4-methylbenzoyl)-2-azaspiro[3.3]heptan-6-yl)ureido)methyl)benzamide] | 0.5 µM | 27.8 µM | >20.1 µM | – | – | –
